Article PMC10826971, “Evaluating protein cross-linking as a therapeutic strategy to stabilize SOD1 variants in a mouse model of familial ALS” (PLOS Biology, 2024)

Assays:
SOD1^G85R = molecular target: T1, SOD1^G85R (Homo sapiens, UniProt P00441, G86R); test: Differential scanning fluorimetry (DSF), thermal stability; format: binding
T1 construct: made in house; host or cells: EGy118ΔSOD1 yeast, YEp351 expression vector
Method: (§1) To understand how cross-linking effects SOD1 stability, we quantified changes in unfolding temperature (ΔTu, hereafter thermal stability).
(§2) The effect of cross-link formation on the thermal stability of SOD1 was determined by differential scanning fluorimetry as previously described. […] After incubation, SYPRO Orange (Invitrogen Corporation, Carlsbad, California, USA), an environmentally sensitive fluorescent dye which is quenched in an aqueous environment but becomes unquenched once it binds hydrophobic residues, was added to the reaction mixture to a final concentration of 200×. The samples were then transferred to a fast optical 96-well reaction plate (Applied Biosystem, Life Technologies Corporation, Carlsbad, California, USA) and loaded on to the real-time PCR machine (Applied Biosystem, Life Technologies Corporation, Carlsbad, California, USA) after plate was spun down to eliminate bubbles. The Melt curve template in StepOne Plus software was used to set up a method. […] The final concentration of DMSO in the reaction mixture was checked as it contributes to the denaturation of proteins. Dilutions were performed accordingly to maintain the final concentration of DMSO less than 1% (vol/vol). All samples were run in technical triplicates. The background data was subtracted from the average relative fluorescence and average derivate for each temperature point, and the data were normalized before Tus were quantified by averaging the negative first derivative of relative fluorescence of all 3 runs and identifying the local minima.

SOD1^A4V = molecular target: T2, SOD1^A4V (Homo sapiens, UniProt P00441, A5V); test: as above; format: binding
T2 construct: made in house; host or cells: EGy118ΔSOD1 yeast, YEp351 expression vector
Method: as §1, §2

T1 sequence (P00441 2-154 G86R limits assumed): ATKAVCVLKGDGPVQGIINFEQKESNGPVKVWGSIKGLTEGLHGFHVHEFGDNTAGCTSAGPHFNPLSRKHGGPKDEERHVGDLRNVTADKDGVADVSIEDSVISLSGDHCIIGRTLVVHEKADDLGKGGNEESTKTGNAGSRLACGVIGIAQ
T2 sequence (P00441 2-154 A5V limits assumed): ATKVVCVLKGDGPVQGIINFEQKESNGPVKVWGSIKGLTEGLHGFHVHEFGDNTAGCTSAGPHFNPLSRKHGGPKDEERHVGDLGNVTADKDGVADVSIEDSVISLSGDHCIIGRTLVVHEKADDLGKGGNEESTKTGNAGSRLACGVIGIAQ

Which results are given for `[O-][S+]1CCCCS1` (stereo not shown) [S-XL6, 1,2-dithiane-1-oxide]?
Normalized ROX (SOD1^G85R; SOD1 G85R Protein+S-XL6, Avg. Temp 91.555): 0.12; Normalized ROX (SOD1^G85R; SOD1 G85R Protein+S-XL6, Avg. Temp 91.855): 0.11; Normalized ROX (SOD1^G85R; SOD1 G85R Protein+S-XL6, Avg. Temp 92.157): 0.11; Normalized ROX (SOD1^G85R; SOD1 G85R Protein+S-XL6, Avg. Temp 92.449): 0.10; Normalized ROX (SOD1^G85R; SOD1 G85R Protein+S-XL6, Avg. Temp 92.753): 0.10; Normalized ROX (SOD1^G85R; SOD1 G85R Protein+S-XL6, Avg. Temp 93.058): 0.09; Normalized ROX (SOD1^G85R; SOD1 G85R Protein+S-XL6, Avg. Temp 93.353): 0.09; Normalized ROX (SOD1^G85R; SOD1 G85R Protein+S-XL6, Avg. Temp 93.651): 0.08; Normalized ROX (SOD1^G85R; SOD1 G85R Protein+S-XL6, Avg. Temp 93.955): 0.0744; Normalized ROX (SOD1^G85R; SOD1 G85R Protein+S-XL6, Avg. Temp 94.247): 0.07; Normalized ROX (SOD1^G85R; SOD1 G85R Protein+S-XL6, Avg. Temp 94.552): 0.07; Normalized ROX (SOD1^G85R; SOD1 G85R Protein+S-XL6, Avg. Temp 94.853): 0.06; Normalized ROX (SOD1^G85R; SOD1 G85R Protein+S-XL6, Avg. Temp 95.157): 0.06; Normalized ROX (SOD1^G85R; SOD1 G85R Protein+S-XL6, Avg. Temp 95.458): 0.05; Normalized ROX (SOD1^G85R; SOD1 G85R Protein+S-XL6, Avg. Temp 95.752): 0.05; Normalized ROX (SOD1^G85R; SOD1 G85R Protein+S-XL6, Avg. Temp 96.054): 0.044; Normalized ROX (SOD1^G85R; SOD1 G85R Protein+S-XL6, Avg. Temp 96.360): 0.04; Normalized ROX (SOD1^G85R; SOD1 G85R Protein+S-XL6, Avg. Temp 96.652): 0.0332; Normalized ROX (SOD1^G85R; SOD1 G85R Protein+S-XL6, Avg. Temp 96.955): 0.0323; Normalized ROX (SOD1^G85R; SOD1 G85R Protein+S-XL6, Avg. Temp 97.253): 0.0276; Normalized ROX (SOD1^G85R; SOD1 G85R Protein+S-XL6, Avg. Temp 97.554): 0.0216; Normalized ROX (SOD1^G85R; SOD1 G85R Protein+S-XL6, Avg. Temp 97.851): 0.02; Normalized ROX (SOD1^G85R; SOD1 G85R Protein+S-XL6, Avg. Temp 98.161): 0.0177; Normalized ROX (SOD1^G85R; SOD1 G85R Protein+S-XL6, Avg. Temp 98.455): 0.0121; Normalized ROX (SOD1^G85R; SOD1 G85R Protein+S-XL6, Avg. Temp 98.751): 0.0106; Normalized ROX (SOD1^G85R; SOD1 G85R Protein+S-XL6, Avg. Temp 99.056): 0.00748; Normalized ROX (SOD1^G85R; SOD1 G85R Protein+S-XL6, Avg. Temp 99.359): 0.00339; Normalized ROX (SOD1^G85R; SOD1 G85R Protein+S-XL6, Avg. Temp 99.657): 0.00106; Normalized ROX (SOD1^G85R; SOD1 G85R Protein+S-XL6, Avg. Temp 99.866): 0.00; unfolding temperature (Tu) of S-XL6 cross-linked protein (SOD1^A4V; 10-fold molar excess S-XL6, 4 h 37°C, untreated 62.9°C): 79.3 °C; Normalized ROX (SOD1^A4V; SOD1 (A4V) + S-XL6, Avg. Temp 88.559): 0.8246; Normalized ROX (SOD1^A4V; SOD1 (A4V) + S-XL6, Avg. Temp 88.8631): 0.8068; Normalized ROX (SOD1^A4V; SOD1 (A4V) + S-XL6, Avg. Temp 89.1556): 0.7806; Normalized ROX (SOD1^A4V; SOD1 (A4V) + S-XL6, Avg. Temp 89.4509): 0.7704; Normalized ROX (SOD1^A4V; SOD1 (A4V) + S-XL6, Avg. Temp 89.7543): 0.7528; Normalized ROX (SOD1^A4V; SOD1 (A4V) + S-XL6, Avg. Temp 90.0524): 0.7438; Normalized ROX (SOD1^A4V; SOD1 (A4V) + S-XL6, Avg. Temp 90.3511): 0.7281; Normalized ROX (SOD1^A4V; SOD1 (A4V) + S-XL6, Avg. Temp 90.6551): 0.7134; Normalized ROX (SOD1^A4V; SOD1 (A4V) + S-XL6, Avg. Temp 90.9595): 0.6972; Normalized ROX (SOD1^A4V; SOD1 (A4V) + S-XL6, Avg. Temp 91.2522): 0.6869; Normalized ROX (SOD1^A4V; SOD1 (A4V) + S-XL6, Avg. Temp 91.5534): 0.6765; Normalized ROX (SOD1^A4V; SOD1 (A4V) + S-XL6, Avg. Temp 91.844): 0.6607; Normalized ROX (SOD1^A4V; SOD1 (A4V) + S-XL6, Avg. Temp 92.1549): 0.6557; Normalized ROX (SOD1^A4V; SOD1 (A4V) + S-XL6, Avg. Temp 92.4505): 0.6388; Normalized ROX (SOD1^A4V; SOD1 (A4V) + S-XL6, Avg. Temp 92.7501): 0.6357; Normalized ROX (SOD1^A4V; SOD1 (A4V) + S-XL6, Avg. Temp 93.0577): 0.6246; Normalized ROX (SOD1^A4V; SOD1 (A4V) + S-XL6, Avg. Temp 93.3585): 0.6123; Normalized ROX (SOD1^A4V; SOD1 (A4V) + S-XL6, Avg. Temp 93.6532): 0.6065; Normalized ROX (SOD1^A4V; SOD1 (A4V) + S-XL6, Avg. Temp 93.9591): 0.6047; Normalized ROX (SOD1^A4V; SOD1 (A4V) + S-XL6, Avg. Temp 94.2561): 0.5946; Normalized ROX (SOD1^A4V; SOD1 (A4V) + S-XL6, Avg. Temp 94.5503): 0.5850; Normalized ROX (SOD1^A4V; SOD1 (A4V) + S-XL6, Avg. Temp 94.8582): 0.5820
